Test results reported in article PMC3907505, “The Mechanism of Intralipid®-Mediated Cardioprotection Complex IV Inhibition by the Active Metabolite, Palmitoylcarnitine, Generates Reactive Oxygen Species and Activates Reperfusion Injury Salvage Kinases” (PLoS ONE, 2014).

Target: T1, Complex IV (cytochrome c oxidase) (Rattus norvegicus, UniProt P00406+P05503)
T1 construct: gene Mt-co1; native complex in saponin-permeabilized left ventricular (apex) cardiac fibers; dimer of 13 subunits per monomer; with Cytochrome c oxidase subunit 3; Cytochrome c oxidase subunit 4 isoform 1, mitochondrial; Cytochrome c oxidase subunit 5A, mitochondrial; Cytochrome c oxidase subunit 5B, mitochondrial; Cytochrome c oxidase subunit 6A2, mitochondrial; Cytochrome c oxidase subunit 6B1; Cytochrome c oxidase subunit 6C; Cytochrome c oxidase subunit 7A1, mitochondrial; Cytochrome c oxidase subunit 7B, mitochondrial; Cytochrome c oxidase subunit 7C, mitochondrial; Cytochrome c oxidase subunit 8B, mitochondrial
Test: high-resolution respirometry (O2 consumption), permeabilized cardiac fibers
Type: biochemical
Conditions: ascorbate 2 mM/TMPD 0.5 mM as complex IV substrates, pH 7.1, 30°C, 1 g/l BSA in medium
Excerpt: high-resolution respirometry (O2 consumption), permeabilized cardiac fibers on Complex IV (cytochrome c oxidase)

Row | IC50 (Hillslope −0.86) [µM] | IC50 (Hillslope −1.58) [µM] | SMILES
1 | 72.3 |  | CCCCCCCCCCCCCCCC(=O)O[C@H](CC(=O)[O-])C[N+](C)(C)C [C16∶0c, Palmitoylcarnitine]
2 |  | 65.6 | CCCCC/C=C\C/C=C\CCCCCCCC(=O)O[C@H](CC(=O)[O-])C[N+](C)(C)C [C18∶2c, cis,cis-9,12-octadecadienoyl-L-carnitine]
